Reference: the CheMixHub viscosity set

Assay: xn = mol fraction of the nth substance listed

Cc1ccc(O)cc1 + c1ccncc1
viscosity [mPa·s], 101 kPa
Conditions | x1 = 0.163 | x1 = 0.2353 | x1 = 0.3282 | x1 = 0.3907 | x1 = 0.4666 | x1 = 0.527 | x1 = 0.6065 | x1 = 0.6911 | x1 = 0.7846 | x1 = 0.881
293.15 K | 1.451 | 1.808 | 2.535 | 3.105 | 4.215 | 5.315 | 7.365 | 10.04 | 13.24 | 16.16
303.15 K | 1.363 | 1.628 | 2.115 | 2.565 | 3.31 | 4.08 | 5.265 | 6.635 | 7.97 | 9.26
313.15 K | 1.139 | 1.37 | 1.727 | 2.065 | 2.6 | 3.115 | 3.83 | 4.66 | 5.415 | 6.02

C1CC[NH2+]C1.CCCCCCCC(=O)[O-] + O
viscosity [mPa·s], 101 kPa
Conditions | x1 = 0.1001 | x1 = 0.1939 | x1 = 0.3059 | x1 = 0.3999 | x1 = 0.5006 | x1 = 0.56 | x1 = 0.7293 | x1 = 0.8443
293.15 K | 19.1 | 30.6 | 44.2 | 53 | 58.7 | 61.3 | 67.6 | 70.6
298.15 K | 17 | 28.7 | 38.7 | 45.6 | 50.2 | 51.77 | 57.23 | 60.69
303.15 K | 15.36 | 22.52 | 32.46 | 37.47 | 40.91 | 42.49 | 46.05 | 48.99
308.15 K | 13.5 | 19.87 | 28.64 | 32.64 | 35.5 | 36.88 | 39.52 | 42.04
313.15 K | 11.56 | 17.09 | 24.55 | 27.65 | 29.82 | 30.62 | 32.72 | 34.71

O=S1(=O)CCCC1 + CCCO
viscosity [mPa·s], 101 kPa
Conditions | x1 = 0.0761 | x1 = 0.1702 | x1 = 0.2436 | x1 = 0.3357 | x1 = 0.4393 | x1 = 0.5374 | x1 = 0.6403 | x1 = 0.7554 | x1 = 0.8835
303.15 K | 1.648 | 1.731 | 1.863 | 2.093 | 2.443 | 2.894 | 3.567 | 4.714 | 6.855
308.15 K | 1.477 | 1.551 | 1.671 | 1.876 | 2.191 | 2.595 | 3.198 | 4.214 | 6.07
313.15 K | 1.329 | 1.399 | 1.506 | 1.691 | 1.976 | 2.342 | 2.884 | 3.788 | 5.424

CCCCOCCOCCO + O=C1CCCN1
298.15 K, 101 kPa
Conditions | viscosity [mPa·s]
x1 = 0.0024 | 14.13
x1 = 0.0056 | 14.02
x1 = 0.0086 | 13.96
x1 = 0.012 | 13.86
x1 = 0.0205 | 13.67
x1 = 0.0421 | 13.08
x1 = 0.0638 | 12.61
x1 = 0.0865 | 12.19
x1 = 0.1132 | 11.69
x1 = 0.1508 | 11.11
x1 = 0.1869 | 10.55
x1 = 0.2192 | 10.19
x1 = 0.2979 | 9.265
x1 = 0.3786 | 8.558
x1 = 0.3996 | 8.385
x1 = 0.4122 | 8.298
x1 = 0.4764 | 7.823
x1 = 0.5469 | 7.347
x1 = 0.6024 | 7.035
x1 = 0.6618 | 6.715
x1 = 0.7147 | 6.434
x1 = 0.7823 | 6.121
x1 = 0.8345 | 5.879
x1 = 0.8792 | 5.707
x1 = 0.9066 | 5.597
x1 = 0.9407 | 5.469
x1 = 0.9748 | 5.264
x2 = 0.0063 | 5.156

O=S1(=O)CCCC1 + CCCCOCCO
303.15 K, 101 kPa
Conditions | viscosity [mPa·s]
x1 = 0.0491 | 1.94
x1 = 0.0999 | 1.87
x1 = 0.2 | 2.002
x1 = 0.2998 | 2.501
x1 = 0.3503 | 2.882
x1 = 0.3999 | 3.311
x1 = 0.4495 | 3.777
x1 = 0.4999 | 4.28
x1 = 0.5997 | 5.339
x1 = 0.7015 | 6.489
x1 = 0.7991 | 7.639
x1 = 0.8987 | 8.898
x1 = 0.9504 | 9.535

O=S1(=O)CCCC1 + CCOC(C)=O
303.15 K, 101 kPa
Conditions | viscosity [mPa·s]
x1 = 0.8548 | 5.285
x1 = 0.9799 | 9.205

O=S1(=O)CCCC1 + Nc1ccccc1
viscosity [mPa·s], 101 kPa
Conditions | x2 = 0.1 | x2 = 0.1955 | x2 = 0.3007 | x2 = 0.3902 | x2 = 0.4997 | x2 = 0.6003 | x2 = 0.7027 | x2 = 0.7982 | x2 = 0.8995
303.15 K | 9.14 | 8.22 | 7.31 | 6.62 | 5.86 | 5.24 | 4.66 | 4.17 | 3.69
308.15 K | 8.01 | 7.2 | 6.39 | 5.78 | 5.1 | 4.55 | 4.03 | 3.59 | 3.17
313.15 K | 7.05 | 6.33 | 5.61 | 5.06 | 4.46 | 3.97 | 3.51 | 3.12 | 2.75

CCCCOCCOCCO + O
viscosity [mPa·s], 101 kPa
Conditions | 293.15 K | 303.15 K | 313.15 K | 323.15 K
x1 = 0.01221 | 1.52 | 1.15 | 0.908 | 0.738
x1 = 0.02709 | 2.26 | 1.64 | 1.27 | 1.02
x1 = 0.04539 | 3.18 | 2.31 | 1.76 | 1.38
x1 = 0.0689 | 4.35 | 3.1 | 2.32 | 1.79
x1 = 0.09981 | 5.57 | 3.93 | 2.88 | 2.19
x1 = 0.1428 | 6.78 | 4.74 | 3.44 | –
x1 = 0.2062 | 7.94 | – | 3.88 | 2.87
x1 = 0.3078 | 8.42 | 5.78 | – | 3.07
x1 = 0.4 | – | – | – | 3.195
x1 = 0.4037 | 8.24 | 5.75 | – | 3.08
x1 = 0.5015 | 7.84 | 5.55 | 4.04 | 3.02
x1 = 0.6107 | 7.35 | 5.27 | 3.86 | 2.91
x1 = 0.705 | 6.94 | 5 | 3.7 | 2.81
x1 = 0.7958 | 6.56 | 4.76 | 3.54 | 2.71
x1 = 0.8932 | 6.2 | 4.49 | 3.38 | 2.61

O=S(=O)(Cl)Cl + Cc1ccccc1
298.15 K, 101 kPa
Conditions | viscosity [mPa·s]
x1 = 0.207 | 0.5841
x1 = 0.373 | 0.6144
x1 = 0.572 | 0.6457
x1 = 0.713 | 0.6642
x1 = 0.826 | 0.6759

Cc1cccc(C)c1 + CC(C)CC(C)(C)C
308.15 K, 101 kPa
Conditions | viscosity [mPa·s]
x2 = 0.0651 | 0.5188
x2 = 0.1364 | 0.5018
x2 = 0.2067 | 0.4888
x2 = 0.3021 | 0.4746
x2 = 0.392 | 0.462
x2 = 0.4939 | 0.4518
x2 = 0.6007 | 0.4435
x2 = 0.7283 | 0.4385
x2 = 0.859 | 0.4352

Nc1ccccc1Cl + COc1ccccc1
viscosity [mPa·s], 101 kPa
Conditions | x2 = 0.1009 | x2 = 0.1969 | x2 = 0.2948 | x2 = 0.3986 | x2 = 0.4961 | x2 = 0.5977 | x2 = 0.6935 | x2 = 0.7952 | x2 = 0.9001
298.15 K | 2.72 | 2.454 | 2.19 | 1.958 | 1.746 | 1.566 | 1.404 | 1.27 | 1.124
303.15 K | 2.42 | 2.196 | 1.969 | 1.762 | 1.583 | 1.427 | 1.285 | 1.156 | 1.044
308.15 K | 2.162 | 1.971 | 1.772 | 1.595 | 1.438 | 1.302 | 1.176 | 1.064 | 0.9578
313.15 K | 1.939 | 1.773 | 1.6 | 1.446 | 1.309 | 1.189 | 1.08 | 0.9804 | 0.8856

Cc1ccc(O)cc1 + CCCCN(CCCC)CCCC
298.16 K, 101 kPa
Conditions | viscosity [mPa·s]
x1 = 0.5103 | 5.579
x1 = 0.5404 | 5.375
x1 = 0.5979 | 9.34
x1 = 0.6392 | 17.64
x1 = 0.6996 | 33.29
x1 = 0.7333 | 51.5
x1 = 0.7543 | 67.62
x1 = 0.7729 | 84.91
x1 = 0.7927 | 101.9
x1 = 0.8108 | 118
x1 = 0.8352 | 127.1
x1 = 0.8549 | 122.8
x1 = 0.8734 | 104.8
x1 = 0.893 | 82.05
x1 = 0.9161 | 61.96
x1 = 0.9375 | 42.17
x1 = 0.9497 | 33.73
x2 = 0.005161 | 13.13

BrC1CCCCC1 + CC(C)CO
viscosity [mPa·s], 101.33 kPa
Conditions | x1 = 0.0998 | x1 = 0.2024 | x1 = 0.3028 | x1 = 0.3991 | x1 = 0.4983 | x1 = 0.5946 | x1 = 0.7011 | x1 = 0.8014 | x1 = 0.9015
298.15 K | 2.871 | 2.496 | 2.252 | 2.095 | 1.981 | 1.915 | 1.878 | 1.877 | 1.915
313.15 K | 1.846 | 1.656 | 1.539 | 1.47 | 1.42 | 1.401 | 1.399 | 1.419 | 1.465

Nc1ccccc1Cl + CC(C)(C)O
viscosity [mPa·s], 101 kPa
Conditions | x1 = 0.0902 | x1 = 0.1802 | x1 = 0.3025 | x1 = 0.4125 | x1 = 0.5089 | x1 = 0.6158 | x1 = 0.7025 | x1 = 0.8054 | x1 = 0.9005
303.15 K | 3.13 | 3.28 | 3.44 | 3.57 | 3.66 | 3.73 | 3.78 | 3.82 | 3.84
308.15 K | 2.89 | 3.03 | 3.16 | 3.26 | 3.33 | 3.39 | 3.43 | 3.46 | 3.46
313.15 K | 2.36 | 2.52 | 2.68 | 2.79 | 2.88 | 2.98 | 3.03 | 3.09 | 3.11
318.15 K | 1.97 | 2.13 | 2.3 | 2.42 | 2.52 | 2.62 | 2.7 | 2.77 | 2.8
